Reference: US20050202010A1, “Method of treatment and bioassay involving macrophage migration inhibitory factor (MIF) as cardiac-derived myocardial depressant factor” (priority 2003, published 2005)

Legend:
LPS stimulated monocytes = settings: cited from earlier work
[1] = system: wild type mice challenged with LPS; assay: Serum MIF levels (ELISA) after LPS challenge, Enbrel pre-treatment; assay type: in vivo, mouse; settings: wild type mice pre-treated (60 minutes) with Enbrel, LPS 4 mg/kg
Description: (§1) Mice were injected intraperitoneally with 4 mg/kg E. coli 0111:B4 LPS (Sigma-Aldrich Corp., St. Louis, Mo.) and sacrificed by CO2 asphyxiation and subsequent cervical dislocation. Uninjected mice were used as controls. The two anti-MIF antibodies (III.D.9 and XIV.15.5, gift of Cytokine PharmaSciences, Inc., King of Prussia, Pa.) and their isotype control (HB-49, gift from Cytokine PharmaSciences, Inc.) were injected (100 μg in […]) intraperitoneally 90 minutes before the LPS challenge in the echocardiogram studies. […]
Determination of serum MIF levels. Sera from six mice were assayed for mouse MIF using the Chemikine™ Rat/Mouse macrophage inhibitory factor (MIF) EIA kit (Chemicon International, Inc., Temecula, Calif.) according to the manufacturer's instructions. Briefly, 5 μl of standards, samples, or reaction buffer (blank) were added to each well in duplicate. Diluted MIF-HRP antibody conjugate was added to each well (100 μl) and allowed to incubate for 2 hours at room temperature. Wells were then washed five times, and TMB substrate (100 μl) was allowed to incubate in the dark for 30 minutes at room temperature. The stop reagent was added to each well, gently mixed, and the ELISA was read on an ELISA plate reader (EL 312e Microplate Reader, Bio-Tek Instruments, Winooski, Vt.) at 450 nm (630 nm background) within 30 minutes of completion of the assay. […]

[2] = system: wild type mice challenged with LPS; assay: Tissue MIF release (western, immunohistochemistry) after LPS challenge, Enbrel pre-treatment; assay type: in vivo, mouse
Description: as §1, with “Louis,” for “Mice were injected intraperitoneally with 4 mg/kg E. coli 0111:B4 LPS (Sigma-Aldrich Corp., St. Louis,”
Protein Extraction and Western Blotting. […] Protein concentration was quantified using the Bio-Rad Protein Assay (Hercules, Calif.) and 50 μg of protein diluted in Laemmeli sample buffer (Bio-Rad) was added in a 1:1 ratio to a final volume of 10 μl and resolved on a 12% SDS polyacrylamide gel under reducing conditions. Prestained SDS-PAGE standards (Kaleidoscope Broad range, Bio-Rad Laboratories, Inc., Hercules, Calif.) were run (10 μl/lane) with each gel in order to determine the approximate M.W. of detected bands. […] The membrane was then developed for 5 minutes with 5 ml of ECL reagents (SuperSignal West Pico, Pierce, Rockford, Ill.), and the resulting chemiluminescent reaction was detected by Kodak X-OMAT AR Film (Eastman Kodak Co., Rochester, N.Y.). […]

Molecule | effect on MIF secretion (LPS stimulated monocytes) | other results
CC[C@@]1([C@@H]2O[C@@H]([C@H]3O[C@@](O)(CO)[C@H](C)C[C@@H]3C)C[C@@H]2C)CC[C@H]([C@]2(C)CC[C@]3(C[C@H](O)[C@@H](C)[C@@H]([C@@H](C)[C@@H](OC)[C@H](C)C(=O)O)O3)O2)O1 [monensin] | do not inhibit the secretion of MIF | –
COc1ccc(Cl)cc1C(=O)NCCc1ccc(S(=O)(=O)NC(=O)NC2CCCCC2)cc1 [glyburide] | MIF secretion did not occur | –
CCCN(CCC)S(=O)(=O)c1ccc(C(=O)O)cc1 [probenicide] | MIF secretion did not occur | –
Enbrel® | – | Maximum serum MIF levels [1]: ~2.3 fold baseline; time of maximum serum MIF levels [1]: 24 h; tissue release of MIF after LPS challenge ([2]; Enbrel given just immediately prior to or after LPS instead of 90 minutes prior (data not shown)): occurred sporatically; release of MIF from cardiac, liver and spleen tissue after LPS challenge ([2]; wild type mice pre-treated with Enbrel, western and immunohistochemistry): did not occur at any time
C[C@H]1CCC/C=C/[C@@H]2C[C@H](O)C[C@H]2[C@H](O)/C=C/C(=O)O1 [brefelding A] | do not inhibit the secretion of MIF | –
